Literature values in US20170173276A1, “SYSTEM AND METHOD FOR DELIVERING AN ANTI-ADHESIVE SUBSTANCE TO A BODY CAVITY” (Northgate Technologies Inc., priority 2003, published 2017).

Legend:
[1] = general/typical value
[2] = administration in liquid form; shown in some studies

Compound | half life [1] [h] | post-operative shoulder pain [2]
unfractionated heparin | 1 to 2 | –
CCCCN1CCCCC1C(=O)Nc1c(C)cccc1C (stereo not drawn) [Bupivacaine] | – | reducing post-operative shoulder pain
low molecular weight heparin | 4 to 5 | –
